The numbers were not newly measured in patent US20130236944A1, “METHODS FOR THE INACTIVATION OF ANTIBIOTICS” (priority 2011, published 2013), which cites them from elsewhere.

For this data set the following is noted: after 180 days; Hektoen et al. (1995).

As to `CN(C)[C@@H]1C(O)=C(C(N)=O)C(=O)[C@@]2(O)C(O)=C3C(=O)c4c(O)cccc4[C@@](C)(O)[C@H]3[C@H](O)[C@@H]12` [oxytetracycline], the “degradation in marine sediments” value is on record as “no degradation”. For `CCn1cc(C(=O)O)c(=O)c2cc3c(cc21)OCO3` [oxolanic acid], the “degradation in marine sediments” value is recorded as “no degradation”.
